Data on 10 compounds can be found in BindingDB's records for doi:10.1016/j.bmcl.2007.03.028 (Merck Frosst Centre For Therapeutic Research, 2007).

A word on the EC50: it is the concentration at which the effect is half-maximal. Low values mean greater potency, high ones weaker potency.

Several values for one entry are separate records, joined by “and”; a condition that tells them apart may be missing. Equal entries are not always repeated.

This experiment deals with T1, Cathepsin K (Oryctolagus cuniculus, UniProt P43236).
T1 sequence (P43236 whole entry): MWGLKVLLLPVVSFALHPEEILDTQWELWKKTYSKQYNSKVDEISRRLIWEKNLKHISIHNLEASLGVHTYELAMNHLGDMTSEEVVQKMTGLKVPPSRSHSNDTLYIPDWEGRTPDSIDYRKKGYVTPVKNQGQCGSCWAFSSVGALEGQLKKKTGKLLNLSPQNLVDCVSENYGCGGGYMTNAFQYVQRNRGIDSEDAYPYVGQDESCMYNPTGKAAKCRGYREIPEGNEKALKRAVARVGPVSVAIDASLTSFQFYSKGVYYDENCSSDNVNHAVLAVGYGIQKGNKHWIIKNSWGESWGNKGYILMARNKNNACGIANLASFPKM
In words: In Vitro Enzyme Inhibition Assay and Bone-Resorption Assay. The conditions noted are these: pH 5.5; 22 °C. The procedure:
Prior to the addition of substrate, different concentrations of the inhibitor ranging from 100 uM to 0.2 nM were preincubated for 15 min with enzyme to allow the establishment of the enzyme-inhibitor complex. The proteolytic cleavage of N-acyl aminocoumarins by cathepsins was conducted in 96-well plate format and the plate read using a Spectramax (Molecular Devices) plate reader. The excitation wavelength was 355 nm and the emission wavelength was 460 nm for peptidyl-AMC substrates. The percent inhibition of the reaction was calculated from a control reaction containing only vehicle. IC50 curves were generated by fitting percent inhibition values to a four parameter logistic model (SOFTMAX PRO, Molecular Devices). EC50/IC50 values were obtained from bone-resorption assay. The long bones were aseptically isolated from a 10-day-old New Zealand White […] (Covance Research Products, Denver, PA) and the soft tissue removed.
On to `CSc1ccc(-c2c[nH]c(=O)cc2[C@@H]2CCC(F)(F)C[C@H]2C(=O)NCC#N)cc1` [(1R,2R)-N-(cyanomethyl)-5,5-difluoro-2-{5-[4-(methylsulfanyl)phenyl]-2-oxo-1,2-dihydropyridin-4-yl}cyclohexane-1-carboxamide], for which the response was half-maximal at 20 nM (EC50). That is a double-digit nanomolar value.
Under `CSc1ccc(-c2c([C@@H]3CCC(F)(F)C[C@H]3C(=O)NCC#N)nnn2Cc2ccccc2)cc1` [(1R,2R)-2-{1-benzyl-5-[4-(methylsulfanyl)phenyl]-1H-1,2,3-triazol-4-yl}-N-(cyanomethyl)-5,5-difluorocyclohexane-1-carboxamide] stands 33 nM; under `CSc1ccc(-c2cn(C)nc2[C@@H]2CCC(F)(F)C[C@H]2C(=O)NCC#N)cc1`, 41 nM; under `CSc1ccc(-c2ncccc2[C@@H]2CCC(F)(F)C[C@H]2C(=O)NCC#N)cc1` [(1R,2R)-N-(cyanomethyl)-5,5-difluoro-2-{2-[4-(methylsulfanyl)phenyl]pyridin-3-yl}cyclohexane-1-carboxamide], 10 nM.
`CSc1ccc(-c2c[n+]([O-])ccc2[C@@H]2CCC(F)(F)C[C@H]2C(=O)NCC#N)cc1` [4-[(1R,2R)-2-[(cyanomethyl)carbamoyl]-4,4-difluorocyclohexyl]-3-[4-(methylsulfanyl)phenyl]-1-pyridin-1-olate]: it took 75 nM to reach a half-maximal effect (EC50). Compared with the last compound, the EC50 is about 7.5-fold higher.
In the case of `CSc1ccc(-c2ccccc2[C@@H]2CCC(F)(F)C[C@H]2C(=O)NCC#N)cc1` [(1R,2R)-N-(cyanomethyl)-5,5-difluoro-2-{2-[4-(methylsulfanyl)phenyl]phenyl}cyclohexane-1-carboxamide] it was 16 nM and 38 nM; in that of `CSc1ccc(-c2c([C@@H]3CCC(F)(F)C[C@H]3C(=O)NCC#N)cc[nH]c2=O)cc1` [(1R,2R)-N-(cyanomethyl)-5,5-difluoro-2-{3-[4-(methylsulfanyl)phenyl]-2-oxo-1,2-dihydropyridin-4-yl}cyclohexane-1-carboxamide], 84 nM.
In turn, `CSc1ccc(-c2nc(C)sc2[C@@H]2CCC(F)(F)C[C@H]2C(=O)NCC#N)cc1` [(1R,2R)-N-(cyanomethyl)-5,5-difluoro-2-{2-methyl-4-[4-(methylsulfanyl)phenyl]-1,3-thiazol-5-yl}cyclohexane-1-carboxamide] yielded an EC50 of 17 nM. Compared with the last compound, the EC50 is about 4.9-fold lower.
The compound `N#CCNC(=O)[C@@H]1CC(F)(F)CC[C@H]1c1cnccc1-c1ccc(SCF)cc1` [(1R,2R)-N-(cyanomethyl)-5,5-difluoro-2-(4-{4-[(fluoromethyl)sulfanyl]phenyl}pyridin-3-yl)cyclohexane-1-carboxamide] had an EC50 of 58 nM.
Under `CSc1ccc(-c2cnccc2[C@@H]2CCC(F)(F)C[C@H]2C(=O)NCC#N)cc1` [(1R,2R)-N-(cyanomethyl)-5,5-difluoro-2-{3-[4-(methylsulfanyl)phenyl]pyridin-4-yl}cyclohexane-1-carboxamide] stands 18 nM.
